Organism: Rattus norvegicus
Experiment: DrugMatrix - Regimen: Daily Repeat
Format: toxicity, organism-based, Sprague-Dawley
Parameters: regimen Daily Repeat, gender Male, age 6-8 weeks
Details: in vivo, po, route oral GAVAGE, vehicle 100 % WATER; for ABSOLUTE BASOPHIL / ABSOLUTE EOSINOPHIL / ABSOLUTE LYMPHOCYTE / ABSOLUTE MONOCYTE / ABSOLUTE SEGMENTED NEUTROPHIL / BASOPHIL / EOSINOPHIL / ERYTHROCYTE COUNT / HEMATOCRIT / HEMOGLOBIN / LEUKOCYTE COUNT / LYMPHOCYTE / MEAN CORPUSCULAR HEMOGLOBIN / MEAN CORPUSCULAR HEMOGLOBIN CONCENTRATION / MEAN CORPUSCULAR VOLUME / MONOCYTE / NEUTROPHIL / NUCLEATED RED BLOOD CELLS / PLATELET COUNT: tissue Blood; for ALANINE AMINOTRANSFERASE / ALBUMIN / ALKALINE PHOSPHATASE / ASPARTATE AMINOTRANSFERASE / BLOOD UREA NITROGEN / CARBON DIOXIDE / CHLORIDE / CHOLESTEROL / CREATINE PHOSPHOKINASE / CREATININE / GLUCOSE / LACTATE DEHYDROGENASE / LIPASE / PHOSPHORUS / POTASSIUM / SODIUM / TOTAL BILIRUBIN / TOTAL PROTEIN / URIC ACID: tissue Plasma
[1] = 0.07 mg/kg, 120 h, dose level Low, time 5 day
[2] = 0.5 mg/kg, 72 h, dose level High, time 3 day
[3] = 0.5 mg/kg, 120 h, dose level High, time 5 day

Cc1cc(C(C)(C)C)c(O)c(C)c1CC1=NCCN1 [OXYMETAZOLINE]
ABSOLUTE BASOPHIL [1]: 0 CELLS/uL | ABSOLUTE EOSINOPHIL [1]: 196 CELLS/uL | ABSOLUTE LYMPHOCYTE [1]: 15823.67 CELLS/uL | ABSOLUTE MONOCYTE [1]: 436.67 CELLS/uL | ABSOLUTE SEGMENTED NEUTROPHIL [1]: 2110.33 CELLS/uL | BASOPHIL [1]: 0% | EOSINOPHIL [1]: 1% | ERYTHROCYTE COUNT [1]: 5.33 x10E6/uL | HEMATOCRIT [1]: 33.03% | HEMOGLOBIN [1]: 13.6 G/DL | LEUKOCYTE COUNT [1]: 18.57 x10E3/uL | LYMPHOCYTE [1]: 85.33% | MEAN CORPUSCULAR HEMOGLOBIN [1]: 25.53 pg | MEAN CORPUSCULAR HEMOGLOBIN CONCENTRATION [1]: 41.13 G/DL | MEAN CORPUSCULAR VOLUME [1]: 61.93 fL | MONOCYTE [1]: 2.33% | NEUTROPHIL [1]: 11.33% | NUCLEATED RED BLOOD CELLS [1]: 0 /100WBC | PLATELET COUNT [1]: 1316.33 x10E3/uL | ALANINE AMINOTRANSFERASE [1]: 45.33 u/L | ALBUMIN [1]: 4.4 G/DL | ALKALINE PHOSPHATASE [1]: 411.67 u/L | ASPARTATE AMINOTRANSFERASE [1]: 82 u/L | BLOOD UREA NITROGEN [1]: 13 mg/dL | CARBON DIOXIDE [1]: 29 mmol/L | CHLORIDE [1]: 101.67 MEQ/L | CHOLESTEROL [1]: 75.33 mg/dL | CREATINE PHOSPHOKINASE [1]: 214.67 u/L | CREATININE [1]: 0.21 mg/dL | GLUCOSE [1]: 167 mg/dL | LACTATE DEHYDROGENASE [1]: 203.67 u/L | LIPASE [1]: 10.67 u/L | PHOSPHORUS [1]: 11.53 mg/dL | POTASSIUM [1]: 6.21 MEQ/L | SODIUM [1]: 142.97 MEQ/L | TOTAL BILIRUBIN [1]: 0.13 mg/dL | TOTAL PROTEIN [1]: 5.97 G/DL | URIC ACID [1]: 1.73 mg/dL | ABSOLUTE BASOPHIL [2]: 0 CELLS/uL | ABSOLUTE EOSINOPHIL [2]: 0 CELLS/uL | ABSOLUTE LYMPHOCYTE [2]: 15583 CELLS/uL | ABSOLUTE MONOCYTE [2]: 59.33 CELLS/uL | ABSOLUTE SEGMENTED NEUTROPHIL [2]: 1491 CELLS/uL | BASOPHIL [2]: 0% | EOSINOPHIL [2]: 0% | ERYTHROCYTE COUNT [2]: 5.61 x10E6/uL | HEMATOCRIT [2]: 35.17% | HEMOGLOBIN [2]: 13.97 G/DL | LEUKOCYTE COUNT [2]: 17.13 x10E3/uL | LYMPHOCYTE [2]: 91% | MEAN CORPUSCULAR HEMOGLOBIN [2]: 24.9 pg | MEAN CORPUSCULAR HEMOGLOBIN CONCENTRATION [2]: 39.73 G/DL | MEAN CORPUSCULAR VOLUME [2]: 62.7 fL | MONOCYTE [2]: 0.33% | NEUTROPHIL [2]: 8.67% | NUCLEATED RED BLOOD CELLS [2]: 0 /100WBC | PLATELET COUNT [2]: 1369.67 x10E3/uL | ALANINE AMINOTRANSFERASE [2]: 42.67 u/L | ALBUMIN [2]: 3.6 G/DL | ALKALINE PHOSPHATASE [2]: 345.33 u/L | ASPARTATE AMINOTRANSFERASE [2]: 79.67 u/L | BLOOD UREA NITROGEN [2]: 16 mg/dL | CARBON DIOXIDE [2]: 25.67 mmol/L | CHLORIDE [2]: 105 MEQ/L | CHOLESTEROL [2]: 70.67 mg/dL | CREATINE PHOSPHOKINASE [2]: 215.33 u/L | CREATININE [2]: 0.14 mg/dL | GLUCOSE [2]: 166.67 mg/dL | LACTATE DEHYDROGENASE [2]: 174 u/L | LIPASE [2]: 9 u/L | PHOSPHORUS [2]: 10.3 mg/dL | POTASSIUM [2]: 5.92 MEQ/L | SODIUM [2]: 144.53 MEQ/L | TOTAL BILIRUBIN [2]: 0.2 mg/dL | TOTAL PROTEIN [2]: 5.43 G/DL | URIC ACID [2]: 1.73 mg/dL | ABSOLUTE BASOPHIL [3]: 0 CELLS/uL | ABSOLUTE EOSINOPHIL [3]: 250.33 CELLS/uL | ABSOLUTE LYMPHOCYTE [3]: 17058 CELLS/uL | ABSOLUTE MONOCYTE [3]: 0 CELLS/uL | ABSOLUTE SEGMENTED NEUTROPHIL [3]: 1425 CELLS/uL | BASOPHIL [3]: 0% | EOSINOPHIL [3]: 1.33% | ERYTHROCYTE COUNT [3]: 5.31 x10E6/uL | HEMATOCRIT [3]: 33.13% | HEMOGLOBIN [3]: 13.6 G/DL | LEUKOCYTE COUNT [3]: 18.73 x10E3/uL | LYMPHOCYTE [3]: 90.33% | MEAN CORPUSCULAR HEMOGLOBIN [3]: 25.67 pg | MEAN CORPUSCULAR HEMOGLOBIN CONCENTRATION [3]: 41.03 G/DL | MEAN CORPUSCULAR VOLUME [3]: 62.53 fL | MONOCYTE [3]: 0% | NEUTROPHIL [3]: 8.33% | NUCLEATED RED BLOOD CELLS [3]: 0 /100WBC | PLATELET COUNT [3]: 1420 x10E3/uL | ALANINE AMINOTRANSFERASE [3]: 47.33 u/L | ALBUMIN [3]: 3.93 G/DL | ALKALINE PHOSPHATASE [3]: 346 u/L | ASPARTATE AMINOTRANSFERASE [3]: 73 u/L | BLOOD UREA NITROGEN [3]: 14.33 mg/dL | CARBON DIOXIDE [3]: 30 mmol/L | CHLORIDE [3]: 104 MEQ/L | CHOLESTEROL [3]: 72.33 mg/dL | CREATINE PHOSPHOKINASE [3]: 164.33 u/L | CREATININE [3]: 0.11 mg/dL | GLUCOSE [3]: 141 mg/dL | LACTATE DEHYDROGENASE [3]: 161 u/L | LIPASE [3]: 10 u/L | PHOSPHORUS [3]: 10.57 mg/dL | POTASSIUM [3]: 6.08 MEQ/L | SODIUM [3]: 142.83 MEQ/L | TOTAL BILIRUBIN [3]: 0.1 mg/dL | TOTAL PROTEIN [3]: 5.37 G/DL | URIC ACID [3]: 1.4 mg/dL
